Test results as given in PubChem BioAssay AID256 (DTP/NCI, 2004).
Values joined by “and” are separate entries in the source; they are usually repeats but may differ in a detail not shown here. Equal values may be shown once. Inconclusive results and toxic doses are left out.

System: CD2F1 mice, L1210 leukemia ip, survival T/C
Test: NCI In Vivo Anticancer Drug Screen. Data for tumor model L1210 Leukemia (intraperitoneal) in CD2F1 (CDF1) mice
Settings: higher = longer survival
How it was run: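 Ratio T/C, where T is the treated-group value and C the vehicle-dosed control value, from mice implanted with a transplantable tumor.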

[1] = endpoint: mean survival time, dose: 75.0 mg/kg/injection, schedule: Q01DX001 (ip), vehicle: saline
[2] = endpoint: mean survival time, dose: 150.0 mg/kg/injection, schedule: Q01DX001 (ip), vehicle: saline
[3] = endpoint: mean survival time, dose: 300.0 mg/kg/injection, schedule: Q01DX001 (ip), vehicle: saline
[4] = endpoint: mean survival time, dose: 100.0 mg/kg/injection, schedule: Q01DX001 (ip), vehicle: saline with Tween-80
[5] = endpoint: mean survival time, dose: 200.0 mg/kg/injection, schedule: Q01DX001 (ip), vehicle: saline with Tween-80
[6] = endpoint: mean survival time, dose: 100.0 mg/kg/injection, schedule: Q04DX002 (ip), vehicle: saline with Tween-80
[7] = endpoint: mean survival time, dose: 200.0 mg/kg/injection, schedule: Q04DX002 (ip), vehicle: saline with Tween-80
[8] = endpoint: mean survival time, dose: 400.0 mg/kg/injection, schedule: Q04DX002 (ip), vehicle: saline with Tween-80
[9] = endpoint: mean survival time, dose: 50.0 mg/kg/injection, schedule: Q01DX009 (ip), vehicle: saline with Tween-80
[10] = endpoint: mean survival time, dose: 100.0 mg/kg/injection, schedule: Q01DX009 (ip), vehicle: saline with Tween-80
[11] = endpoint: mean survival time, dose: 200.0 mg/kg/injection, schedule: Q01DX009 (ip), vehicle: saline with Tween-80
[12] = endpoint: mean survival time, dose: 400.0 mg/kg/injection, schedule: Q01DX009 (ip), vehicle: saline with Tween-80
[13] = endpoint: mean survival time, dose: 100.0 mg/kg/injection, schedule: Q04DX003 (ip), vehicle: saline with Tween-80
[14] = endpoint: mean survival time, dose: 200.0 mg/kg/injection, schedule: Q04DX003 (ip), vehicle: saline with Tween-80
[15] = endpoint: mean survival time, dose: 400.0 mg/kg/injection, schedule: Q04DX003 (ip), vehicle: saline with Tween-80
[16] = endpoint: mean survival time, dose: 25.0 mg/kg/injection, schedule: Q01DX009 (ip), vehicle: saline with Tween-80
[17] = endpoint: mean survival time, dose: 25.0 mg/kg/injection, schedule: Q04DX002 (ip), vehicle: saline with Tween-80
[18] = endpoint: mean survival time, dose: 50.0 mg/kg/injection, schedule: Q04DX002 (ip), vehicle: saline with Tween-80

## CCOC(=O)/N=c1\ccccn1O
[1]
  T/C: 101 % of control
[2]
  T/C: 101 % of control
[3]
  T/C: 105 % of control

## CC[C@@]1(O)C[C@H](OC2CC(N(C)C)C(OC3CC(O)C(OC4CC(O)C(O)C(C)O4)C(C)O3)C(C)O2)c2c(cc3c(c2O)C(=O)c2c(O)ccc(O)c2C3=O)[C@H]1C(=O)OC (stereo not given in full)
endpoint: mean survival time, dose: 3.8 mg/kg/injection, schedule: Q01DX001 (ip), vehicle: other
  T/C: 117 % of control
endpoint: mean survival time, dose: 7.5 mg/kg/injection, schedule: Q01DX001 (ip), vehicle: other
  T/C: 120 % of control
endpoint: mean survival time, dose: 15.0 mg/kg/injection, schedule: Q01DX001 (ip), vehicle: other
  T/C: 96 % of control

## CCC(C=O)(CC)CCC#N
endpoint: mean survival time, dose: 25.0 mg/kg/injection, schedule: Q01DX001 (ip), vehicle: Klucel (hydroxypropylcellulose) (HPC)
  T/C: 96 % of control
endpoint: mean survival time, dose: 50.0 mg/kg/injection, schedule: Q01DX001 (ip), vehicle: Klucel (hydroxypropylcellulose) (HPC)
  T/C: 103 % of control
endpoint: mean survival time, dose: 100.0 mg/kg/injection, schedule: Q01DX001 (ip), vehicle: Klucel (hydroxypropylcellulose) (HPC)
  T/C: 87 % of control
[4]
  T/C: 103 % of control
[5]
  T/C: 100 % of control
endpoint: mean survival time, dose: 400.0 mg/kg/injection, schedule: Q01DX001 (ip), vehicle: saline with Tween-80
  T/C: 100 % of control

## COc1nc2c(N)ncnc2n1C1OC(CO)C(O)C1O (stereo not given)
[6]
  T/C: 103 % of control
[7]
  T/C: 103 % of control
[8]
  T/C: 96 % of control

## CC(=O)OCC1OC(n2ccc(O)cc2=O)C(OC(C)=O)C1OC(C)=O (stereo not given)
endpoint: median survival time, dose: 44.0 mg/kg/injection, schedule: Q01DX009 (ip), vehicle: saline + alcohol
  T/C: 154 % of control
endpoint: median survival time, dose: 67.0 mg/kg/injection, schedule: Q01DX009 (ip), vehicle: saline + alcohol
  T/C: 164 % of control
endpoint: median survival time, dose: 100.0 mg/kg/injection, schedule: Q01DX009 (ip), vehicle: saline + alcohol
  T/C: 174 % of control
endpoint: median survival time, dose: 150.0 mg/kg/injection, schedule: Q01DX009 (ip), vehicle: saline + alcohol
  T/C: 165 % of control

## CCSc1n[nH]c(=O)nc1SC
[1]
  T/C: 98 % of control
[2]
  T/C: 96 % of control
[3]
  T/C: 97 % of control

## COc1ccc(OC)c(NC(=O)Oc2cccc(NC(C)=O)c2)c1
endpoint: mean survival time, dose: 50.0 mg/kg/injection, schedule: Q01DX009 (ip), vehicle: Klucel (hydroxypropylcellulose) (HPC)
  T/C: 105 % of control
[9]
  T/C: 103 % of control
endpoint: mean survival time, dose: 100.0 mg/kg/injection, schedule: Q01DX009 (ip), vehicle: Klucel (hydroxypropylcellulose) (HPC)
  T/C: 102 % of control
[10]
  T/C: 97 % of control
endpoint: mean survival time, dose: 200.0 mg/kg/injection, schedule: Q01DX009 (ip), vehicle: Klucel (hydroxypropylcellulose) (HPC)
  T/C: 100 % of control
[11]
  T/C: 272 % of control and 100 % of control
endpoint: mean survival time, dose: 400.0 mg/kg/injection, schedule: Q01DX009 (ip), vehicle: Klucel (hydroxypropylcellulose) (HPC)
  T/C: 102 % of control
[12]
  T/C: 92 % of control

## CC1=NN(c2ccc(S(=O)(=O)O)cc2)C(=O)C1
[10]
  T/C: 93 % of control
[13]
  T/C: 96 % of control
[11]
  T/C: 87 % of control
[14]
  T/C: 104 % of control
[15]
  T/C: 98 % of control

## CC(=O)OC1CCC(C(C)(C)C)CC1 (stereo not given)
endpoint: mean survival time, dose: 100.0 mg/kg/injection, schedule: Q04DX003 (ip), vehicle: saline
  T/C: 102 % of control
endpoint: mean survival time, dose: 200.0 mg/kg/injection, schedule: Q04DX003 (ip), vehicle: saline
  T/C: 95 % of control
endpoint: mean survival time, dose: 400.0 mg/kg/injection, schedule: Q04DX003 (ip), vehicle: saline
  T/C: 96 % of control

## CCC1(O)C(=O)OCc2c1cc1n(c2=O)Cc2cc3ccc(C=O)cc3nc2-1 (stereo not given)
endpoint: median survival time, dose: 4.0 mg/kg/injection, schedule: Q04DX002 (ip), vehicle: saline with Tween-80
  T/C: 98 % of control
endpoint: median survival time, dose: 8.0 mg/kg/injection, schedule: Q04DX002 (ip), vehicle: saline with Tween-80
  T/C: 96 % of control
endpoint: median survival time, dose: 16.0 mg/kg/injection, schedule: Q04DX002 (ip), vehicle: saline with Tween-80
  T/C: 98 % of control
endpoint: median survival time, dose: 32.0 mg/kg/injection, schedule: Q04DX002 (ip), vehicle: saline with Tween-80
  T/C: 102 % of control

## CCCOC(=O)c1ccc(NC(=O)Nc2ccc(C(=O)OCC)cc2)cc1
endpoint: mean survival time, dose: 25.0 mg/kg/injection, schedule: Q01DX001 (ip), vehicle: saline with Tween-80
  T/C: 96 % of control
[16]
  T/C: 88 % of control
[17]
  T/C: 92 % of control and 95 % of control
endpoint: mean survival time, dose: 25.0 mg/kg/injection, schedule: Q04DX003 (ip), vehicle: saline with Tween-80
  T/C: 102 % of control
endpoint: mean survival time, dose: 50.0 mg/kg/injection, schedule: Q01DX001 (ip), vehicle: saline with Tween-80
  T/C: 93 % of control
[9]
  T/C: 88 % of control and 94 % of control
[18]
  T/C: 92 % of control and 98 % of control
endpoint: mean survival time, dose: 50.0 mg/kg/injection, schedule: Q04DX003 (ip), vehicle: saline with Tween-80
  T/C: 92 % of control
[4]
  T/C: 87 % of control and 93 % of control
[10]
  T/C: 91 % of control and 96 % of control
[13]
  T/C: 91 % of control and 94 % of control
[5]
  T/C: 86 % of control
[7]
  T/C: 90 % of control
[14]
  T/C: 86 % of control
[8]
  T/C: 90 % of control
[15]
  T/C: 88 % of control

## Cc1cc(N)c(O)cc1C
endpoint: mean survival time, dose: 100.0 mg/kg/injection, schedule: Q01DX009 (ip), vehicle: saline
  T/C: 96 % of control

## C[N+](C)(C)CC1CCCC1
endpoint: mean survival time, dose: 5.0 mg/kg/injection, schedule: Q01DX001 (ip), vehicle: saline
  T/C: 97 % of control
endpoint: mean survival time, dose: 10.0 mg/kg/injection, schedule: Q01DX001 (ip), vehicle: saline
  T/C: 102 % of control
endpoint: mean survival time, dose: 20.0 mg/kg/injection, schedule: Q01DX001 (ip), vehicle: saline
  T/C: 103 % of control
endpoint: mean survival time, dose: 40.0 mg/kg/injection, schedule: Q01DX001 (ip), vehicle: saline
  T/C: 103 % of control

## Nc1nc(N)c2cc(CCc3ccc(C(=O)NC(CCC(=O)O)C(=O)O)cc3)ccc2n1 (stereo not given)
endpoint: mean survival time, dose: 0.31 mg/kg/injection, schedule: Q01DX009 (ip), vehicle: Klucel (hydroxypropylcellulose) (HPC)
  T/C: 119 % of control

## C[N+](C)(C)C.[Cl][Fe]([Cl])([Cl])[Cl]
endpoint: mean survival time, dose: 3.13 mg/kg/injection, schedule: Q01DX009 (ip), vehicle: saline
  T/C: 94 % of control
endpoint: mean survival time, dose: 6.25 mg/kg/injection, schedule: Q01DX009 (ip), vehicle: saline
  T/C: 97 % of control
endpoint: mean survival time, dose: 12.5 mg/kg/injection, schedule: Q01DX009 (ip), vehicle: saline
  T/C: 91 % of control

## O=C(O)COc1ccc(Cl)cc1Cl (tested in a mixture with another compound)
endpoint: mean survival time, dose: 12.5 mg/kg/injection, schedule: Q01DX009 (ip), vehicle: saline with Tween-80
  T/C: 89 % of control
[16]
  T/C: 94 % of control
[17]
  T/C: 111 % of control
[9]
  T/C: 87 % of control and 104 % of control
[18]
  T/C: 121 % of control
[10]
  T/C: 101 % of control
[6]
  T/C: 99 % of control
[11]
  T/C: 93 % of control
[7]
  T/C: 96 % of control

## COC(=O)c1ccc(OCc2ccccc2)c([N+](=O)[O-])c1
endpoint: mean survival time, dose: 100.0 mg/kg/injection, schedule: Q01DX001 (ip), vehicle: saline sonified
  T/C: 98 % of control
[10]
  T/C: 105 % of control
endpoint: mean survival time, dose: 200.0 mg/kg/injection, schedule: Q01DX001 (ip), vehicle: saline sonified
  T/C: 96 % of control
[11]
  T/C: 97 % of control
endpoint: mean survival time, dose: 400.0 mg/kg/injection, schedule: Q01DX001 (ip), vehicle: saline sonified
  T/C: 95 % of control
[12]
  T/C: 105 % of control

## CCC1CCC(NC(C)=O)CC1 (stereo not given)
[4]
  T/C: 96 % of control

## CC12CCC(=O)C=C1CCCC2O (stereo not given)
endpoint: mean survival time, dose: 100.0 mg/kg/injection, schedule: Q04DX003 (ip), vehicle: saline sonified
  T/C: 97 % of control
endpoint: mean survival time, dose: 200.0 mg/kg/injection, schedule: Q04DX003 (ip), vehicle: saline sonified
  T/C: 112 % of control

## NC(=O)C1=CC2C3C=CC2(O)C(=O)OC3O1 (stereo not given)
endpoint: median survival time, dose: 1.9 mg/kg/injection, schedule: Q01DX009 (ip), vehicle: Klucel (hydroxypropylcellulose) (HPC)
  T/C: 108 % of control
endpoint: median survival time, dose: 3.75 mg/kg/injection, schedule: Q01DX009 (ip), vehicle: Klucel (hydroxypropylcellulose) (HPC)
  T/C: 120 % of control
endpoint: median survival time, dose: 7.5 mg/kg/injection, schedule: Q01DX009 (ip), vehicle: Klucel (hydroxypropylcellulose) (HPC)
  T/C: 118 % of control
endpoint: median survival time, dose: 15.0 mg/kg/injection, schedule: Q01DX009 (ip), vehicle: Klucel (hydroxypropylcellulose) (HPC)
  T/C: 117 % of control
endpoint: median survival time, dose: 30.0 mg/kg/injection, schedule: Q01DX009 (ip), vehicle: Klucel (hydroxypropylcellulose) (HPC)
  T/C: 121 % of control and 110 % of control
